Laboratory results taken from patent publication US20230392180A1, “MICROSCOPIC IMAGING AND ANALYSES OF EPIGENETIC LANDSCAPE” (Sanford Burnham Prebys Medical Discovery Institute, priority 2020, published 2023).
Structures can show the parent of a compound that is named as a salt.

Columns and labels:
[1] = Exposure estimated from publicly available information; settings: women, estimating 50-75 kg body weight
primary human fNPCs = assay: MIEL-EpiTox of ToxCast Phase I/II+elk library compounds; settings: 10 μM, 72 h, H3K27ac and H3K27me3
Protocol: Cells were treated with test compounds, then fixed and immunolabeled for epigenetic marks. The pattern of marks within each nucleus was analyzed to create multivariate signatures or “fingerprints” of each perturbation. Since the technique analyzes texture features rather than intensities and morphologies, culturing and immunostaining artifacts are reduced. MIEL is related to “cell painting”, in which multivariate analysis of multiplexed biomarkers was used to classify protein localization, cell subpopulations, and drug mechanisms of action. The multiparametric signatures of the cells (centroids) were plotted in 2D via multidimensional scaling (MDS), and support vector machine (SVM) classification was used to establish borders to divide the epigenetic signatures into distinct classes. MIEL was employed to probe the presence of epitoxic compounds in the EPA ToxCast Phase I/II+elk library and examined the effects of 352 compounds on primary human fNPCs (Thermo-Fisher, #A15654). Cells were incubated with 10 μM compound for 72 h, labeled with fluorescence-tagged antibodies to H3K27ac and H3K27me3, and imaged on a Vala Sciences IC200 cytometer. Features were derived using Acapella (Perkin Elmer) high-content imaging and analysis software. SVM classification was conducted as previously described. […] The same criteria were applied to determine toxicity.

[2] = single report; cited from earlier work
[3] = cited from earlier work
GBM2 cells = assay: Sensitization to radiation or TMZ; type: cell-based, human; settings: 200 uM, 4 days
Protocol: Sensitization to radiation or TMZ: Cells were plated at 1500 cells/well in 384-well optical bottom assay plates (PerkinElmer). Two sets of the experiment were prepared; DMSO (0.1%) was used for negative controls at 48 DMSO replicates per plate; 3 replicates (wells) were treated per compound. Cells in both sets were pre-treated with epigenetic compounds for 2 days prior to cytotoxic treatment. Cytotoxic treatment, either 200 uM temozolomide (TMZ, Sigma) or 1 Gy x-ray radiation (RS2000; RAD Source) was carried out for 4 days on single set (‘treatment set’); for TMZ treatment, DMSO control was given to the second set. A single radiation dose was given at day 3; TMZ was given twice at days 3 and 5 of the experiment. Cells were fixed, stained with DAPI, and scored using an automated microscope (Celigo; Nexcelom Bioscience). For each compound, fold change in cell number was calculated for both the “treatment set” (Drug+Cytotox) and the “control set” (Drug), compared to DMSO-treated wells in the control set. The effect of radiation or TMZ alone was calculated as fold reduction of DMSO-treated wells in the treatment set compared to DMSO-treated wells in the control set (Cytotox). The coefficient of drug interaction (CDI) was calculated as […]. […]

With C[C@@H]1C[C@H]2[C@@H]3CCC4=CC(=O)C=C[C@]4(C)[C@@]3(F)[C@@H](O)C[C@]2(C)[C@@]1(O)C(=O)COS(=O)(=O)O [dexamethasone sulfate] as the compound, how does the “estimated concentrations reached following repeated administration” value [1] read?
Its value is roughly 10 µM.

For CCCCOC(=O)COc1ccc(Cl)cc1Cl [2,4-D 1-butyl ester], which “MIEL-EpiTox class (epitoxic, cytotoxic, inert)” value (primary human fNPCs) is on record?
Its value is “epitoxic hits producing the largest epigenetic perturbations”.

Which results are given for Cc1sc2c(c1C)C(c1ccc(Cl)cc1)=N[C@@H](CC(=O)Nc1ccc(O)cc1)c1nnc(C)n1-2 [OTX015]?
interaction with TMZ [2]: synergy; toxicity in clinical trials ([3]; doses achieving biologically active levels): low toxicity; clinical benefits ([3]; in vivo): no detectable clinical benefits

Which “reduction in cell numbers” value (GBM2 cells) does the source give for Cn1nnc2c(C(N)=O)ncn2c1=O [TMZ, temozolomide] here?
Its value is 50%.
